Results taken from PubChem BioAssay AID2060599 (Molecular Pharmacology Branch, DTP, NCI, 2025).
Values joined by “and” are separate entries in the source; they are usually repeats but may differ in a detail not shown here. Identical values can stand only once.

Tested on: 817829-284-R-J1-PDC complex spheroids, viability
Assay: Anticancer human tumor 817829-284-R-J1-PDC patient-derived colon adenocarcinoma cell line growth inhibition [CLK]
Settings: for viability, T/C: stronger effect = lower value
How it was run: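 Patient-derived tumor cells grown as complex spheroids with HUVEC endothelial cells and mesenchymal stem cells, treated with drug combinations. Concentrations descend in half-log steps from near clinical Cmax, or from 10 microM if Cmax unknown.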

[1] = curve of first compound, second compound 0.0316 µM
[2] = curve of first compound, second compound 0.1 µM
[3] = curve of first compound, second compound 0.316 µM
[4] = curve of first compound, second compound 1 µM
[5] = curve of first compound, second compound 3.16 µM
[6] = curve of first compound, second compound 10 µM
[7] = second compound 0.0316 µM, first compound 0.0316 µM
[8] = second compound 0.0316 µM, first compound 0.1 µM
[9] = second compound 0.0316 µM, first compound 0.316 µM
[10] = second compound 0.0316 µM, first compound 1 µM
[11] = second compound 0.0316 µM, first compound 3.16 µM
[12] = second compound 0.0316 µM, first compound 10 µM
[13] = second compound 0.1 µM, first compound 0.0316 µM
[14] = second compound 0.1 µM, first compound 0.1 µM
[15] = second compound 0.1 µM, first compound 0.316 µM
[16] = second compound 0.1 µM, first compound 1 µM
[17] = second compound 0.1 µM, first compound 3.16 µM
[18] = second compound 0.1 µM, first compound 10 µM
[19] = second compound 0.316 µM, first compound 0.0316 µM
[20] = second compound 0.316 µM, first compound 0.1 µM
[21] = second compound 0.316 µM, first compound 0.316 µM
[22] = second compound 0.316 µM, first compound 1 µM
[23] = second compound 0.316 µM, first compound 3.16 µM
[24] = second compound 0.316 µM, first compound 10 µM
[25] = second compound 1 µM, first compound 0.0316 µM
[26] = second compound 1 µM, first compound 0.1 µM
[27] = second compound 1 µM, first compound 0.316 µM
[28] = second compound 1 µM, first compound 1 µM
[29] = second compound 1 µM, first compound 3.16 µM
[30] = second compound 1 µM, first compound 10 µM
[31] = second compound 3.16 µM, first compound 0.0316 µM
[32] = second compound 3.16 µM, first compound 0.1 µM
[33] = second compound 3.16 µM, first compound 0.316 µM
[34] = second compound 3.16 µM, first compound 1 µM
[35] = second compound 3.16 µM, first compound 3.16 µM
[36] = second compound 3.16 µM, first compound 10 µM
[37] = second compound 10 µM, first compound 0.0316 µM
[38] = second compound 10 µM, first compound 0.1 µM
[39] = second compound 10 µM, first compound 0.316 µM
[40] = second compound 10 µM, first compound 1 µM
[41] = second compound 10 µM, first compound 3.16 µM
[42] = second compound 10 µM, first compound 10 µM
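Further: spheroids exposed to the agents for seven days before readout.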

## CC(=O)O[C@H]1C(=O)[C@@]2(C)[C@H]([C@H](OC(=O)c3ccccc3)[C@]3(O)C[C@H](OC(=O)[C@H](O)[C@@H](NC(=O)c4ccccc4)c4ccccc4)C(C)=C1C3(C)C)[C@]1(OC(C)=O)CO[C@@H]1C[C@@H]2O + CNC(=O)c1ccc(Nc2nc(OC3CCCC3)c3c(-c4ccc5nc(C)oc5c4)c[nH]c3n2)c(OC)c1
[1]
  IC50: < 31.6 nM
[2]
  IC50: < 31.6 nM
[3]
  IC50: < 31.6 nM
[4]
  IC50: < 31.6 nM
[5]
  IC50: < 31.6 nM
[6]
  IC50: < 31.6 nM
[7]
  viability, T/C: 10.8%
[8]
  viability, T/C: 11.5%
[9]
  viability, T/C: 10.8%
[10]
  viability, T/C: 10.6%
[11]
  viability, T/C: 11.6%
[12]
  viability, T/C: 16.2%
[13]
  viability, T/C: 24.2%
[14]
  viability, T/C: 25.3%
[15]
  viability, T/C: 20.2%
[16]
  viability, T/C: 23.8%
[17]
  viability, T/C: 28.9%
[18]
  viability, T/C: 26.8%
[19]
  viability, T/C: 29.5%
[20]
  viability, T/C: 31.6%
[21]
  viability, T/C: 43.8%
[22]
  viability, T/C: 38.9%
[23]
  viability, T/C: 45.1%
[24]
  viability, T/C: 32.6%
[25]
  viability, T/C: 31.7%
[26]
  viability, T/C: 23.7%
[27]
  viability, T/C: 24%
[28]
  viability, T/C: 30.4%
[29]
  viability, T/C: 22.6%
[30]
  viability, T/C: 22.8%
[31]
  viability, T/C: 26.2%
[32]
  viability, T/C: 23.9%
[33]
  viability, T/C: 17.7%
[34]
  viability, T/C: 20.1%
[35]
  viability, T/C: 23.3%
[36]
  viability, T/C: 23.3%
[37]
  viability, T/C: 18.6%
[38]
  viability, T/C: 23.3%
[39]
  viability, T/C: 29.5%
[40]
  viability, T/C: 24.3%
[41]
  viability, T/C: 20.5%
[42]
  viability, T/C: 19.9%

## C=CC(=O)Nc1cc(Nc2nccc(-c3cn(C)c4ccccc34)n2)c(OC)cc1N(C)CCN(C)C
Compound 0.000949 µM
  viability, T/C: 108%
Compound 0.003 µM
  viability, T/C: 101%
Compound 0.00949 µM
  viability, T/C: 85.9%
Compound 0.03 µM
  viability, T/C: 72.9%
Compound 0.0949 µM
  viability, T/C: 99.5%
Compound 0.3 µM
  viability, T/C: 73.8%
Curve of compound
  IC50: > 300 nM

## C#Cc1c(F)ccc2cc(O)cc(-c3ncc4c(N5CC6CCC(C5)N6)nc(OCC56CCCN5CC(F)C6)nc4c3F)c12 (configuration not stated)
Compound 0.0316 µM
  viability, T/C: 126% and 105%
Compound 0.1 µM
  viability, T/C: 74% and 131%
Compound 0.316 µM
  viability, T/C: 116% and 80.9%
Compound 1 µM
  viability, T/C: 81.9% and 122%
Compound 3.16 µM
  viability, T/C: 60% and 100%
Compound 10 µM
  viability, T/C: 62.3% and 79.4%
Curve of compound
  IC50: > 10000 nM

## C=CC(=O)N1CCN(c2nc(=O)n(-c3c(C)ccnc3C(C)C)c3nc(-c4c(O)cccc4F)c(F)cc23)C(C)C1 (configuration not stated)
Compound 0.0316 µM
  viability, T/C: 101% and 136%
Compound 0.1 µM
  viability, T/C: 97.2% and 101%
Compound 0.316 µM
  viability, T/C: 101% and 92.9%
Compound 1 µM
  viability, T/C: 100%
Compound 3.16 µM
  viability, T/C: 101%
Compound 10 µM
  viability, T/C: 57% and 87.9%
Curve of compound
  IC50: > 10000 nM

## CC(Nc1ccc2c(c1)OCCn1cc(N3C(=O)OCC3C(F)F)nc1-2)C(N)=O (configuration not stated) + CN1CCN(c2cc(C(=O)Nc3cc4cc(-c5cnn(C)c5)ccc4cn3)ccn2)CC1
[1]
  IC50: 3240 nM
[2]
  IC50: < 31.6 nM
[3]
  IC50: < 31.6 nM
[4]
  IC50: < 31.6 nM
[5]
  IC50: < 31.6 nM
[6]
  IC50: < 31.6 nM
[7]
  viability, T/C: 53.4%
[8]
  viability, T/C: 55.5%
[9]
  viability, T/C: 56.8%
[10]
  viability, T/C: 48.1%
[11]
  viability, T/C: 51.4%
[12]
  viability, T/C: 22.9%
[13]
  viability, T/C: 20.4%
[14]
  viability, T/C: 19.2%
[15]
  viability, T/C: 17%
[16]
  viability, T/C: 16.8%
[17]
  viability, T/C: 14.3%
[18]
  viability, T/C: 10.7%
[19]
  viability, T/C: 1.57%
[20]
  viability, T/C: 1.34%
[21]
  viability, T/C: 0.89%
[22]
  viability, T/C: 0.83%
[23]
  viability, T/C: 0.72%
[24]
  viability, T/C: 0.96%
[25]
  viability, T/C: 0.08%
[26]
  viability, T/C: 0.11%
[27]
  viability, T/C: 0.12%
[28]
  viability, T/C: 0.07%
[29]
  viability, T/C: 0.09%
[30]
  viability, T/C: 0.11%
[31]
  viability, T/C: 0.12%
[32]
  viability, T/C: 0.15%
[33]
  viability, T/C: 0.15%
[34]
  viability, T/C: 0.15%
[35]
  viability, T/C: 0.17%
[36]
  viability, T/C: 0.14%
[37]
  viability, T/C: 0.07%
[38]
  viability, T/C: 0.08%
[39]
  viability, T/C: 0.13%
[40]
  viability, T/C: 0.11%
[41]
  viability, T/C: 0.24%
[42]
  viability, T/C: 0.14%

## O=C(c1cc(Cc2n[nH]c(=O)c3ccccc23)ccc1F)N1CCN(C(=O)C2CC2)CC1 + CNC(=O)c1ccc(Nc2nc(OC3CCCC3)c3c(-c4ccc5nc(C)oc5c4)c[nH]c3n2)c(OC)c1
[1]
  IC50: < 31.6 nM
[2]
  IC50: < 31.6 nM
[3]
  IC50: < 31.6 nM
[4]
  IC50: < 31.6 nM
[5]
  IC50: < 31.6 nM
[6]
  IC50: < 31.6 nM
[7]
  viability, T/C: 30.4%
[8]
  viability, T/C: 42.9%
[9]
  viability, T/C: 38%
[10]
  viability, T/C: 26.7%
[11]
  viability, T/C: 31.5%
[12]
  viability, T/C: 22.4%
[13]
  viability, T/C: 24.2%
[14]
  viability, T/C: 19.2%
[15]
  viability, T/C: 30.9%
[16]
  viability, T/C: 22.9%
[17]
  viability, T/C: 24.2%
[18]
  viability, T/C: 24.6%
[19]
  viability, T/C: 26.9%
[20]
  viability, T/C: 22%
[21]
  viability, T/C: 27.7%
[22]
  viability, T/C: 31.5%
[23]
  viability, T/C: 25%
[24]
  viability, T/C: 17.2%
[25]
  viability, T/C: 22.3%
[26]
  viability, T/C: 20.1%
[27]
  viability, T/C: 20%
[28]
  viability, T/C: 17.8%
[29]
  viability, T/C: 16.9%
[30]
  viability, T/C: 14.7%
[31]
  viability, T/C: 21.9%
[32]
  viability, T/C: 20.9%
[33]
  viability, T/C: 19.4%
[34]
  viability, T/C: 25.5%
[35]
  viability, T/C: 18.5%
[36]
  viability, T/C: 22%
[37]
  viability, T/C: 21.9%
[38]
  viability, T/C: 22.9%
[39]
  viability, T/C: 30.8%
[40]
  viability, T/C: 18.1%
[41]
  viability, T/C: 15.8%
[42]
  viability, T/C: 15.3%
